Results taken from patent US8258114B2, “Modulation of glucose-6-phosphatase translocase expression” (Isis Pharmaceuticals, Inc., priority 2004, dated 2012).

Experiments:
[1] = tested on: mouse glucose-6-phosphatase translocase mRNA; test: Antisense inhibition of mouse glucose-6-phosphatase translocase mRNA in primary mouse hepatocytes, 50 nM (Table 5); assay type: cell-based; settings: 50 nM oligonucleotide, mRNA by real-time PCR, normalized with RIBOGREEN
ob/ob mice = test: Glycerol tolerance test in ob/ob mice; assay type: in vivo, mouse; settings: 25 mg/kg twice weekly, after 6th dose, glycerol 1 g/kg oral
Experimental: The mice described in Example 7 were evaluated for performance on glycerol tolerance tests after the 6th dose of saline or antisense oligonucleotides. This is a functional measure of glucose-6-phosphatase translocase inhibition; i.e., whether the conversion of […] to glucose is impaired by antisense inhibitors of glucose-6-phosphatase translocase.
Glycerol tolerance tests were performed after treatment with saline, ISIS 148985 (SEQ ID NO: 118), or ISIS 149008 (SEQ ID NO: 141). Glycerol was administered by oral gavage via an 18 g gavage needle at a dose of 1 g/kg. Plasma glucose levels were measured for 30, 60, 90 and 120 minutes post-challenge using an Ascencia Glucometer Elite XL (Bayer, Tarrytown, N.Y.) and plotted over time. Area under the curve (AUC) for each treatment graph was calculated.

[2] = Liver triglycerides and liver glycogen in lean ob/ob+/- mice; assay type: in vivo, mouse; settings: 50 mg/kg s.c. twice weekly, five doses; for Liver glycogen levels: saline approximately 37
Experimental: (§1) Ob/ob mice have a mutation in the leptin gene which results in obesity and hyperglycemia. […] Seven-week old ob/ob+/−male mice were dosed twice weekly with 50 mg/kg of antisense oligonucleotide, given subcutaneously. A total of five doses were given. glucose-6-phosphatase translocase antisense oligonucleotides used were ISIS 148985 (SEQ ID NO: 118) and ISIS 149008 (SEQ ID NO: 141). Each treatment group was comprised of 4 animals. Animals were sacrificed 48 hours after the last dose of oligonucleotide was administered, and liver triglycerides, liver glycogen content, and target reduction in liver were measured.
Liver triglyceride levels are used to assess hepatic steatosis, or accumulation (poor clearing) of lipids in the liver. Tissue triglyceride levels were measured using a Triglyceride GPO assay from Roche Diagnostics (Indianapolis, Ind.). Liver triglycerides were about 19 mg/dL for saline treated lean mice and were about 14 mg/dL for ISIS 149008-treated lean mice.
Tissue glycogen was measured using the Glucose Trinder Reagent (Sigma-Aldrich, St. Louis, Mo.). Glycogen levels of lean mice treated with saline alone were approximately 37 mg/g of tissue. Mice treated with ISIS 149008 or 148985, the antisense inhibitors of glucose-6-phosphatase translocase, had glycogen levels of approximately 39 mg/g and 36 mg/g, respectively.

[3] = tested on: glucose-6-phosphatase translocase mRNA; test: Target mRNA reduction in liver of lean ob/ob+/- mice; assay type: in vivo, mouse; settings: 50 mg/kg s.c. twice weekly, five doses
Experimental: as §1
Glucose-6-phosphatase translocase mRNA levels in liver were measured at the end of study using RiboGreen™ RNA quantification reagent (Molecular Probes, Inc. Eugene, Oreg.) as taught in previous examples above.
Glucose-6-phosphatase translocase mRNA levels were reduced by approximately 51% in lean mice treated with ISIS 148985, and by approximately 88% in lean mice treated with ISIS 149008, when compared to saline treatment. Thus the antisense compounds ISIS 149008 and ISIS 148985 were effective in reducing liver glucose-6-phosphatase translocase mRNA levels in vivo.

Sequence | % Inhib [1] | % Inhib ([1]; listed as 148985) [%] | decrease in AUC of plasma glucose compared to saline, glycerol tolerance test (ob/ob mice) | Liver glycogen levels [2] | Glucose-6-phosphatase translocase mRNA levels in liver, reduction compared to saline [3] | Liver Triglycerides ([2]; saline about 19)
GCTCCATAGCGAGGACTCGA (chemistry not given here) [ISIS 148985] | approximately 84% | 84 | did not show significant decrease in AUC | ~36 mg/g | approximately 51% | –
TATACAAGTCGGTTTGCCCT (chemistry not given here) [ISIS 149008] | ~65% | – | approximately 30% | approximately 39 mg/g | approximately 88% | about 14 mg/dL
